From ChEMBL document CHEMBL1201862, “PubChem BioAssay data set” (2004)
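Protocol summary: plate cells (96-well), add compound at 5 concentrations, incubate 48 h, interpolate endpoints linearly. GI50: concentration for 50% inhibition of growth.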 The source made the active and inactive calls. No stated cut-off is given here; in the data, active = GI50 up to about 1.1 µM and inactive = higher.

Tests used:
Assay in all cases: NCI tumour cell line growth inhibition, 48 h
SN12C = test system: SN12C
TK-10 = test system: TK-10
SNB-19 = test system: SNB-19
NCI-H226 = test system: NCI-H226
OVCAR-3 = test system: OVCAR-3
T47D = test system: T47D
K562 = test system: K562
PC-3 = test system: PC-3
HL-60 = test system: HL-60
IGROV-1 = test system: IGROV-1
LOX IMVI = test system: LOX IMVI
MDA-MB-231 = test system: MDA-MB-231
RPMI-8226 = test system: RPMI-8226
A498 = test system: A498
MDA-MB-435 = test system: MDA-MB-435
A549 = test system: A549
HCT-15 = test system: HCT-15
OVCAR-8 = test system: OVCAR-8
786-0 = test system: 786-0
CCRF-CEM = test system: CCRF-CEM
SK-MEL-5 = test system: SK-MEL-5
HOP-62 = test system: HOP-62
EKVX = test system: EKVX
MDA-N = test system: MDA-N
UO-31 = test system: UO-31
MCF7 = test system: MCF7
HT-29 = test system: HT-29
NCI-H460 = test system: NCI-H460
NCI-H23 = test system: NCI-H23
SNB-75 = test system: SNB-75
U-251 = test system: U-251
HOP-92 = test system: HOP-92
SF-268 = test system: SF-268
SK-MEL-2 = test system: SK-MEL-2
RXF 393 = test system: RXF 393
UACC-62 = test system: UACC-62
Malme-3M = test system: Malme-3M
SF-295 = test system: SF-295
SK-MEL-28 = test system: SK-MEL-28
SK-OV-3 = test system: SK-OV-3
M14 = test system: M14
COLO 205 = test system: COLO 205
HCC 2998 = test system: HCC 2998
KM12 = test system: KM12
SW-620 = test system: SW-620
SF-539 = test system: SF-539
OVCAR-5 = test system: OVCAR-5
UACC-257 = test system: UACC-257
MOLT-4 = test system: MOLT-4
ACHN = test system: ACHN
Hs-578T = test system: Hs-578T
BT-549 = test system: BT-549
OVCAR-4 = test system: OVCAR-4
NCI-H522 = test system: NCI-H522
DU-145 = test system: DU-145
NCI/ADR-RES = test system: NCI/ADR-RES
CAKI-1 = test system: CAKI-1
HCT-116 = test system: HCT-116

In the case of `Oc1ccc2ccccc2c1-c1nnc(CCCCCCCCc2nnc(-c3c(O)ccc4ccccc34)o2)o1`, the GI50 (SN12C) was 1.21 µM (inactive), the GI50 (TK-10) was 9.42 µM (inactive) and the GI50 (SNB-19) was 3.53 µM (inactive). The GI50 (NCI-H226) was 10.4 µM (inactive), the GI50 (OVCAR-3) was 0.314 µM (active) and the GI50 (T47D) was 4 µM (inactive). The GI50 (K562) was 0.955 µM (active), the GI50 (PC-3) was 1.98 µM (inactive) and the GI50 (HL-60) was 0.319 µM (active). For the same compound, the GI50 (IGROV-1) was 0.536 µM (active), the GI50 (LOX IMVI) was 1.01 µM (active) and the GI50 (MDA-MB-231) was 3.52 µM (inactive). For the same compound, the GI50 (RPMI-8226) was 2.72 µM (inactive), the GI50 (A498) was 16.5 µM (inactive) and the GI50 (MDA-MB-435) was 4.24 µM (inactive). For the same compound, the GI50 (A549) was 3.85 µM (inactive), the GI50 (HCT-15) was 0.815 µM and the GI50 (OVCAR-8) was 2.18 µM (inactive). The GI50 (786-0) was 1.1 µM (active), the GI50 (CCRF-CEM) was 0.448 µM (active) and the GI50 (SK-MEL-5) was 0.838 µM (active). The GI50 (HOP-62) was 1.59 µM (inactive), the GI50 (EKVX) was 4.05 µM (inactive) and the GI50 (MDA-N) was 4.23 µM (inactive). The GI50 (UO-31) was 0.389 µM (active), the GI50 (MCF7) was 8.95 µM (inactive) and the GI50 (HT-29) was 13.4 µM (inactive). The GI50 (NCI-H460) was 0.955 µM (active), the GI50 (NCI-H23) was 5.21 µM (inactive) and the GI50 (SNB-75) was 21.4 µM (inactive). For the same compound, the GI50 (U-251) was 1.05 µM (active), the GI50 (HOP-92) was 9.82 µM (inactive) and the GI50 (SF-268) was 0.834 µM (active). For the same compound, the GI50 (SK-MEL-2) was 5.87 µM (inactive), the GI50 (RXF 393) was 3.48 µM (inactive) and the GI50 (UACC-62) was 7.64 µM (inactive). The GI50 (Malme-3M) was 3.1 µM (inactive), the GI50 (SF-295) was 3.61 µM (inactive) and the GI50 (SK-MEL-28) was 18.1 µM (inactive). The GI50 (SK-OV-3) was 18.1 µM (inactive), the GI50 (M14) was 1.34 µM (inactive) and the GI50 (COLO 205) was 15.3 µM (inactive). For the same compound, the GI50 (HCC 2998) was 4.06 µM (inactive), the GI50 (KM12) was 27.2 µM (inactive) and the GI50 (SW-620) was 3.44 µM (inactive). For the same compound, the GI50 (SF-539) was 1.52 µM (inactive), the GI50 (OVCAR-5) was 6.32 µM (inactive) and the GI50 (UACC-257) was 10.2 µM (inactive). The GI50 (MOLT-4) was 0.449 µM (active), the GI50 (ACHN) was 0.741 µM (active) and the GI50 (Hs-578T) was > 84.9 µM (inactive). For the same compound, the GI50 (BT-549) was 23.1 µM (inactive), the GI50 (OVCAR-4) was 1.15 µM (inactive) and the GI50 (NCI-H522) was 0.63 µM (active). For the same compound, the GI50 (DU-145) was 5.08 µM (inactive), the GI50 (NCI/ADR-RES) was 1.44 µM (inactive) and the GI50 (CAKI-1) was 0.813 µM (active). The GI50 (HCT-116) was 1.18 µM (inactive).
For `Cc1nnc(N)s/c1=N/O`, the GI50 (SN12C) was > 100 µM (inactive), the GI50 (TK-10) was > 100 µM (inactive) and the GI50 (SNB-19) was > 100 µM (inactive). The GI50 (NCI-H226) was > 100 µM (inactive), the GI50 (OVCAR-3) was > 100 µM (inactive) and the GI50 (T47D) was > 100 µM (inactive). The GI50 (K562) was > 100 µM (inactive), the GI50 (PC-3) was > 100 µM (inactive) and the GI50 (HL-60) was > 100 µM (inactive). The GI50 (IGROV-1) was > 100 µM (inactive), the GI50 (LOX IMVI) was > 100 µM (inactive) and the GI50 (MDA-MB-231) was > 100 µM (inactive). The GI50 (RPMI-8226) was > 100 µM (inactive), the GI50 (A498) was > 100 µM (inactive) and the GI50 (MDA-MB-435) was > 100 µM (inactive). For the same compound, the GI50 (A549) was > 100 µM (inactive), the GI50 (HCT-15) was greater than 100 µM and the GI50 (OVCAR-8) was > 100 µM (inactive). The GI50 (786-0) was > 100 µM (inactive), the GI50 (CCRF-CEM) was > 100 µM (inactive) and the GI50 (SK-MEL-5) was 56.9 µM (inactive). For the same compound, the GI50 (HOP-62) was > 100 µM (inactive), the GI50 (EKVX) was > 100 µM (inactive) and the GI50 (MDA-N) was > 100 µM (inactive). For the same compound, the GI50 (UO-31) was > 100 µM (inactive), the GI50 (MCF7) was > 100 µM (inactive) and the GI50 (HT-29) was > 100 µM (inactive). The GI50 (NCI-H460) was > 100 µM (inactive), the GI50 (NCI-H23) was > 100 µM (inactive) and the GI50 (SNB-75) was > 100 µM (inactive). For the same compound, the GI50 (U-251) was > 100 µM (inactive), the GI50 (HOP-92) was > 100 µM (inactive) and the GI50 (SF-268) was > 100 µM (inactive). For the same compound, the GI50 (SK-MEL-2) was > 100 µM (inactive), the GI50 (RXF 393) was > 100 µM (inactive) and the GI50 (UACC-62) was > 100 µM (inactive). For the same compound, the GI50 (Malme-3M) was > 100 µM (inactive), the GI50 (SF-295) was > 100 µM (inactive) and the GI50 (SK-MEL-28) was > 100 µM (inactive). For the same compound, the GI50 (SK-OV-3) was > 100 µM (inactive), the GI50 (M14) was > 100 µM (inactive) and the GI50 (COLO 205) was > 100 µM (inactive). The GI50 (HCC 2998) was > 100 µM (inactive), the GI50 (KM12) was > 100 µM (inactive) and the GI50 (SW-620) was > 100 µM (inactive). For the same compound, the GI50 (SF-539) was > 100 µM (inactive), the GI50 (OVCAR-5) was > 100 µM (inactive) and the GI50 (UACC-257) was 56.9 µM (inactive). For the same compound, the GI50 (MOLT-4) was > 100 µM (inactive), the GI50 (ACHN) was > 100 µM (inactive) and the GI50 (Hs-578T) was > 100 µM (inactive). The GI50 (BT-549) was > 100 µM (inactive), the GI50 (OVCAR-4) was > 100 µM (inactive) and the GI50 (NCI-H522) was > 100 µM (inactive). The GI50 (DU-145) was > 100 µM (inactive), the GI50 (NCI/ADR-RES) was > 100 µM (inactive) and the GI50 (CAKI-1) was > 100 µM (inactive). For the same compound, the GI50 (HCT-116) was > 100 µM (inactive).
For `CC(=O)OCC1OC(OC2CC3C(C)(C)C(OC(C)=O)CC[C@]3(C)C3CCC45CC4(CCC5[C@@H](C)C[C@H](O)C(O)C(C)(C)O)[C@]23C)C(O)C(O)C1O` (some centres undefined), the GI50 (SN12C) was > 10 µM (inactive), the GI50 (TK-10) was > 10 µM (inactive) and the GI50 (SNB-19) was > 10 µM (inactive). The GI50 (NCI-H226) was > 10 µM (inactive), the GI50 (OVCAR-3) was > 10 µM (inactive) and the GI50 (T47D) was > 10 µM (inactive). For the same compound, the GI50 (K562) was 9.12 µM (inactive), the GI50 (PC-3) was > 10 µM (inactive) and the GI50 (HL-60) was 9.44 µM (inactive). The GI50 (IGROV-1) was > 10 µM (inactive), the GI50 (LOX IMVI) was > 10 µM (inactive) and the GI50 (MDA-MB-231) was > 10 µM (inactive). The GI50 (RPMI-8226) was 5.18 µM (inactive), the GI50 (A498) was > 10 µM (inactive) and the GI50 (MDA-MB-435) was > 10 µM (inactive). For the same compound, the GI50 (A549) was > 10 µM (inactive), the GI50 (HCT-15) was greater than 10 µM and the GI50 (OVCAR-8) was > 10 µM (inactive). For the same compound, the GI50 (786-0) was > 10 µM (inactive), the GI50 (CCRF-CEM) was > 10 µM (inactive) and the GI50 (SK-MEL-5) was > 10 µM (inactive). The GI50 (HOP-62) was > 10 µM (inactive), the GI50 (EKVX) was > 10 µM (inactive) and the GI50 (MDA-N) was > 10 µM (inactive). For the same compound, the GI50 (UO-31) was > 10 µM (inactive), the GI50 (MCF7) was 6.61 µM (inactive) and the GI50 (HT-29) was > 10 µM (inactive). For the same compound, the GI50 (NCI-H460) was > 10 µM (inactive), the GI50 (NCI-H23) was > 10 µM (inactive) and the GI50 (SNB-75) was > 10 µM (inactive). The GI50 (U-251) was > 10 µM (inactive), the GI50 (HOP-92) was 9.44 µM (inactive) and the GI50 (SF-268) was > 10 µM (inactive). For the same compound, the GI50 (SK-MEL-2) was 5.65 µM (inactive), the GI50 (RXF 393) was > 10 µM (inactive) and the GI50 (UACC-62) was > 10 µM (inactive). The GI50 (Malme-3M) was > 10 µM (inactive), the GI50 (SF-295) was > 10 µM (inactive) and the GI50 (SK-MEL-28) was > 10 µM (inactive). The GI50 (SK-OV-3) was > 10 µM (inactive), the GI50 (M14) was > 10 µM (inactive) and the GI50 (COLO 205) was > 10 µM (inactive). For the same compound, the GI50 (HCC 2998) was > 10 µM (inactive), the GI50 (KM12) was > 10 µM (inactive) and the GI50 (SW-620) was > 10 µM (inactive). The GI50 (SF-539) was > 10 µM (inactive), the GI50 (OVCAR-5) was > 10 µM (inactive) and the GI50 (UACC-257) was > 10 µM (inactive). The GI50 (MOLT-4) was > 10 µM (inactive), the GI50 (ACHN) was > 10 µM (inactive) and the GI50 (Hs-578T) was > 10 µM (inactive). For the same compound, the GI50 (BT-549) was > 10 µM (inactive), the GI50 (OVCAR-4) was > 10 µM (inactive) and the GI50 (NCI-H522) was > 10 µM (inactive). The GI50 (DU-145) was > 10 µM (inactive), the GI50 (NCI/ADR-RES) was > 10 µM (inactive) and the GI50 (CAKI-1) was > 10 µM (inactive). The GI50 (HCT-116) was > 10 µM (inactive).
